As usually defined, the inhibition is the drop in the measured response relative to a control, in per cent. Broadly, the Ki is the equilibrium dissociation constant of an inhibitor or competing ligand from its target. A high value points to a looser hold on the target.

Residues, ends and D or L forms follow the SMILES beside them.

The target of experiment [1] is T1, Proteasome Macropain subunit (Saccharomyces cerevisiae S288c) (UniProt P22141).
T1 sequence (whole entry): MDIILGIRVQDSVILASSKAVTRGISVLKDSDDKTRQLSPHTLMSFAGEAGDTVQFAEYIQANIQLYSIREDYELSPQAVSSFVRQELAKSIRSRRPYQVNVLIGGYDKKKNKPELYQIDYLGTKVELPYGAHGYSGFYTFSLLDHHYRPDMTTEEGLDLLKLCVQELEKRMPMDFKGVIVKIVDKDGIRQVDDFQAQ
In words: Inhibition of trypsin like activity of yeast 20S proteasome at 80 uM.

The target of experiment [2] is T2, Proteasome component C5 (Saccharomyces cerevisiae S288c) (UniProt P23724).
T2 sequence (whole entry): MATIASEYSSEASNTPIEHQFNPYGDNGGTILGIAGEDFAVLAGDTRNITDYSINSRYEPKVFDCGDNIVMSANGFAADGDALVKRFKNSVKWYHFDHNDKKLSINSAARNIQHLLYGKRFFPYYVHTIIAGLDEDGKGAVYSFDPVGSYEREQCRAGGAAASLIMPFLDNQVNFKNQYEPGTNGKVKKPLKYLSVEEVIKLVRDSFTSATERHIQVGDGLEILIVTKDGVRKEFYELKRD
In words: Inhibition of post acid activity of yeast 20S proteasome at 80 uM.

Experiment [3] addresses T3, Proteasome Macropain subunit PRE2 (Saccharomyces cerevisiae S288c) (UniProt P30656).
T3 sequence (whole entry): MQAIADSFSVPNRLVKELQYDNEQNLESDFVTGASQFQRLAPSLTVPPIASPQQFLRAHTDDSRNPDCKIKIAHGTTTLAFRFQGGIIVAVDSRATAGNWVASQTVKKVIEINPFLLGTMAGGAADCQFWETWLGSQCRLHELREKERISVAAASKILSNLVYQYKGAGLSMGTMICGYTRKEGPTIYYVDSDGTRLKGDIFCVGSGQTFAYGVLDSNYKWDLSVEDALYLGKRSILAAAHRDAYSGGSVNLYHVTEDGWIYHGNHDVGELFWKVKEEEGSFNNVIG
In words: Inhibition of chymotrypsin like activity of yeast 20S proteasome at 80 uM.

Experiment [4] addresses T2, Proteasome component C5 (Saccharomyces cerevisiae S288c). In words: Activation of post acid activity of yeast 20S proteasome.
Experiment [5] has as its target T4, Proteasome Macropain subunit PRE2 (Saccharomyces cerevisiae S288c, UniProt P30656).
T4 sequence (P30656 whole entry): T3 sequence (whole entry)
In words: Inhibition of chymotrypsin like activity of yeast 20S proteasome.

Experiment [6] concerns the target T1, Proteasome Macropain subunit (Saccharomyces cerevisiae S288c). In words: Activation of trypsin like activity of yeast 20S proteasome.
Experiment [7] deals with T5, Proteasome Macropain subunit (Saccharomyces cerevisiae S288c, UniProt P22141).
T5 sequence (P22141 whole entry): T1 sequence (whole entry)
In words: Inhibition of trypsin like activity of yeast 20S proteasome.

The target of experiment [8] is T6, Proteasome component C5 (Saccharomyces cerevisiae S288c, UniProt P23724).
T6 sequence (P23724 whole entry): T2 sequence (whole entry)
In words: Inhibition of post acid activity of yeast 20S proteasome.

The target of experiment [9] is T3, Proteasome Macropain subunit PRE2 (Saccharomyces cerevisiae S288c). In words: Activation of chymotrypsin like activity of yeast 20S proteasome.
The target is the same in experiment [10]. In words: Inhibition of chymotrypsin like activity of yeast 20S proteasome at 625 uM.
The target in experiment [11] is T1, Proteasome Macropain subunit (Saccharomyces cerevisiae S288c). In words: Inhibition of trypsin like activity of yeast 20S proteasome at 625 uM.
Experiment [12] addresses T2, Proteasome component C5 (Saccharomyces cerevisiae S288c). In words: (§1) Inhibition of post acid activity of yeast 20S proteasome at 625 uM.
The target of experiment [13] is T6, Proteasome component C5. The experiment is described as §1.

For `CCCCCCCCCCCCCCCC(=O)OC`, the inhibition in experiment [1], in experiment [2] and in experiment [3] was < 10% throughout.

Regarding `N[C@@H](Cc1ccc(O)cc1)C(=O)N[C@@H](CCC(=O)O)C(=O)N[C@@H](CC(=O)O)C(=O)O` (H-Tyr-Glu-Asp-OH), the inhibition in experiment [1], in experiment [2] and in experiment [3] was < 10% throughout.

`CC(C)C[C@H](NC(=O)[C@H](CCC(=O)O)NC(=O)[C@@H](N)Cc1ccc(O)cc1)C(=O)O` (H-Tyr-Glu-Leu-OH): the inhibition in experiment [1], in experiment [2] and in experiment [3] was < 10% each time.

Take `CCCCCCCC(=O)N[C@H](C(=O)N[C@H](C(=O)N[C@H](C(=O)N[C@@H](Cc1ccc(O)cc1)C(=O)N[C@@H](CCCCN)C(=O)N[C@@H](Cc1ccccc1)C(=O)O)[C@@H](C)O)C(C)C)[C@@H](C)O` (HELM PEPTIDE1{[CCCCCCCC(=O)[*:2]].T.V.T.Y.K.F}$$$$V2.0): the Activity is 1.3 in experiment [4] and 1.2 in experiment [6]. The compound further displayed a Ki in experiment [5] of 20 µM.

Consider `CCCCCCCC(=O)N[C@@H](Cc1ccc(O)cc1)C(=O)N[C@@H](CCC(=O)O)C(=O)N[C@@H](CC(C)C)C(=O)O` (HELM PEPTIDE1{[CCCCCCCC(=O)[*:2]].Y.E.L}$$$$V2.0), for which the inhibition in experiment [2] is < 10%. The Ki in [5] is > 80 µM. Moreover, the Activity in experiment [6] came to 1.9.

Take `CCCCCCCCCCCC(=O)N[C@@H](Cc1ccc(O)cc1)C(=O)N[C@@H](CCC(=O)O)C(=O)N[C@@H](CC(C)C)C(=O)O` (HELM PEPTIDE1{[CCCCCCCCCCCC(=O)[*:2]].Y.E.L}$$$$V2.0): the results for the Ki in experiment [7] and in [8] were > 80 µM and 62 µM, respectively. In experiment [3], the inhibition is < 10%.

In experiment [7], `CCCCCCCCCCCCCC(=O)N[C@H](C(=O)N[C@H](C(=O)N[C@H](C(=O)N[C@@H](Cc1ccccc1)C(=O)N[C@@H](CC(=O)O)C(=O)N[C@@H](Cc1ccc(O)cc1)C(=O)O)[C@@H](C)O)[C@@H](C)CC)[C@@H](C)O` (HELM PEPTIDE1{[CCCCCCCCCCCCCC(=O)[*:2]].T.I.T.F.D.Y}$$$$V2.0) gave a Ki of 78 µM. The same compound yielded an Activity in [4] of 1.3. In addition, the inhibition in experiment [3] was < 10%.

For the compound `CCCCCCCCCCCCCCCC(=O)N[C@H](C(=O)N[C@H](C(=O)N[C@H](C(=O)N[C@@H](Cc1ccc(O)cc1)C(=O)N[C@@H](CCCCN)C(=O)N[C@@H](Cc1ccccc1)C(=O)O)[C@@H](C)O)C(C)C)[C@@H](C)O` (HELM PEPTIDE1{[CCCCCCCCCCCCCCCC(=O)[*:2]].T.V.T.Y.K.F}$$$$V2.0), the Activity in [9] was 1.6.

For the compound `CCCCCCCCCCCCCCCCCC(=O)N[C@H](C(=O)N[C@H](C(=O)N[C@H](C(=O)N[C@@H](Cc1ccccc1)C(=O)N[C@@H](CC(=O)O)C(=O)N[C@@H](Cc1ccc(O)cc1)C(=O)O)[C@@H](C)O)[C@@H](C)CC)[C@@H](C)O` (HELM PEPTIDE1{[CCCCCCCCCCCCCCCCCC(=O)[*:2]].T.I.T.F.D.Y}$$$$V2.0), the figures for the Activity in experiment [4] and in experiment [6] were 1.3 and 1.6, respectively. Also, the affinity in [5] corresponds to a Ki of 39 µM.

For the compound H-TITYDF-OH, the inhibition in experiment [10] and in experiment [11] was < 10% in each case. Moreover, the Ki in experiment [8] was > 625 µM.

As for H-TITYEY-OH, the inhibition in experiment [10], in experiment [11] and in experiment [12] was < 10% each time.

Regarding H-TITYKF-OH, the inhibition in [11] was < 10%. The figures for the Ki in experiment [5] and in [13] were 151 µM and 260 µM, respectively.

With H-TVTYDY-OH, the inhibition in [10], in experiment [11] and in [12] was < 10% each time.

H-TVTYKL-OH: the inhibition in experiment [11] and in [12] was < 10% in each case. Besides, the Ki in experiment [5] came to 545 µM.

These data come from ChEMBL document CHEMBL1148514, “Development of lipopeptides for inhibiting 20S proteasomes” (Bioorg Med Chem Lett, 2006).
